Target: T1, ABCG2 (Homo sapiens, UniProt Q9UNQ0)
T1 sequence (Q9UNQ0 1-655): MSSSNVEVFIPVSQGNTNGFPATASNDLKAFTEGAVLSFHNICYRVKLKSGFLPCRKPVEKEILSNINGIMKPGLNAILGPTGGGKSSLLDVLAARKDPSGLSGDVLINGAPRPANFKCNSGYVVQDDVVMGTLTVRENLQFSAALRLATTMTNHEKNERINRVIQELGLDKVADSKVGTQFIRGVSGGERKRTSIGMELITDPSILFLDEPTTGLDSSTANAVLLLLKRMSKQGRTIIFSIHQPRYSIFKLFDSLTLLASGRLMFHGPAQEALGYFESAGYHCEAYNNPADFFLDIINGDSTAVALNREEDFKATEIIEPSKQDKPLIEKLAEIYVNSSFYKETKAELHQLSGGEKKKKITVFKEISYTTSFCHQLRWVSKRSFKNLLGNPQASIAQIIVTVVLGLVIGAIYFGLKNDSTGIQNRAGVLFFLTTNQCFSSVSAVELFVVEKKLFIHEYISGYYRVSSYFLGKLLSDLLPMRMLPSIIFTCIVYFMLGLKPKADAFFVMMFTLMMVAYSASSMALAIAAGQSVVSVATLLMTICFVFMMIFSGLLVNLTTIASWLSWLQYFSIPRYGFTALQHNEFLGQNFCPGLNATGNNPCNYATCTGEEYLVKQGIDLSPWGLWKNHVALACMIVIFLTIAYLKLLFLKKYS
Format: binding

CCN(CC)CCN1C(=O)c2c(c3c4cccc(Cl)c4n([C@@H]4O[C@H](CO)[C@@H](OC)[C@H](O)[C@H]4O)c3c3[nH]c4c(Cl)cccc4c23)C1=O [becatecarin]
IC50: 2100 nM
